The values below come from PMC4585962, “A peptide factor secreted by Staphylococcus pseudintermedius exhibits properties of both bacteriocins and virulence factors” (Scientific Reports, 2015).

For one series, the system named is HSF cells. Briefly: Cell membrane integrity, propidium iodide / FDA fluorescence microscopy. Conditions: media contained 0.5 or 15 μM BacSp222 (concentration of these values not stated), three independent experiments ± SD. Type of series: cell-based, human.
For a further series, the system named is B. subtilis. Briefly: Bactericidal test, plating on TSA after incubation. Type of series: cell-based, Bacillus subtilis. Conditions: 1 × 10^4 CFU incubated with 1 μM bacteriocin for 30 minutes (data not shown).
In another series the test system is RAW264.7 cells. Kind of series: NO synthesis (nitrite, Griess reagent). Format: cell-based, murine. The note with it: 24 h. The method, then:
The murine monocyte/macrophage cell line P388/D1 and murine macrophage-like cell line RAW264.7 were grown in a 96-well plate in DMEM supplemented with 5% (v/v) FBS. Prior to the experiment, the medium was replaced with fresh DMEM enriched with 2% (v/v) of FBS (negative control) or supplemented with 1) 100 ng/ml lipopolysaccharide (LPS, Sigma), 2) 10 ng/ml IFN [drawing 9] (R&D Systems), 3) 0.01–1000 nM BacSp222, or 4) BacSp222 combined with LPS or IFN [drawing 10] . The cells were then cultured for another 24 h to induce iNOS expression and nitric oxide synthesis. The nitrite levels were measured in culture medium by a nitrate assay performed on a microplate. One hundred microliters of cultured media was incubated with 100 μl of Griess reagent (1% (w/v) sulphanilic acid/0.1% (w/v) N-(1-naphtyl) ethylenediaminedihydrochloride (Sigma) in 2.5% (v/v) H3PO4) at room temperature for 10 min. Then, the absorbance was measured at 545 nm using a microplate reader (PowerWave X, BioTek Instruments). Before use, the solution of BacSp222 was tested for LPS contamination using an E-TOXATE assay kit (Sigma). The measurements ascertained that the level of LPS in 1 μM bacteriocin solution was equal to or less than 3 pg/ml.
In general terms: The Griess reaction detects nitrite, a stable product of nitric oxide.

Series [1] concerns adipose-derived stem cells (ASC). Kind of series: Cytotoxicity, LDH and MTT assays. Type of series: cell-based. The note with it: 4 h exposure, said to be similar to the other cell types (Fig. S7). As for the experimental part:
Human skin fibroblasts (HSF, ATCC CRL-2522), adipose-derived stem cells (ASCs, ATCC PCS-500-011), and HeLa human epithelioid cervix carcinoma cells (ATCC CCL-2) were maintained in Dulbecco’s modified Eagle’s medium (DMEM, Sigma) containing 1 g/l glucose, 10% (v/v) foetal bovine serum (FBS), 1 U/ml penicillin, 1 μg/ml streptomycin, and 2.5 μg/ml amphotericin B. Murine P388/D1 monocyte/macrophage cells (ATCC CCL-46) and murine RAW264.7 macrophage-like cells (ATCC TIB-71) were cultured in DMEM containing 4.5 g/l glucose, 5% (v/v) FBS, and antibiotics, as indicated above. Keratinocytes from human skin were grown in KBM Gold Medium (Lonza). All cells were incubated in standard conditions (5% CO2, 37 °C, >95% humidity). […] After a 30-min incubation (RT, in the dark), the reaction was stopped, and the absorbance was measured with a microplate reader (PowerWave X, BioTek Instruments) at 490 nm, followed by subtraction of the absorbance reference value at 690 nm. […] The absorbance of solubilized purple formazan was measured at 540 nm, followed by subtraction of the absorbance reference value at 690 nm. […] The amount of released haemoglobin was spectrophotometrically determined at 540 nm and compared with a positive control (erythrocytes lysed with 1% sodium dodecyl sulphate).
Background: Formazan colour is commonly taken as a measure of viable cells.

No end group written: not given here. *: point of attachment. For = O=C*

As for “For-MAGLLRFLLSKGRALYNWAKSHVGKVWEWLKSGATYEQIKEWIENALGWR [BacSp222]”, the PI-positive cells stood at 39 ± 13.5% in the series on HSF cells (0.5 hours of incubation), 74 ± 6.7% in the series with HSF cells (2 hours of incubation) and 97 ± 3.7% in the series on HSF cells (4 hours of incubation). Also, the “colonies after plating on TSA” value in the series on B. subtilis is given as “complete absence of the colonies”. Also, the “effect on LPS-induced NO production” value in the series on RAW264.7 cells (0.01–1000 nM BacSp222 with LPS 100 ng/ml) is “did not affect”. The “NO production after exposure to BacSp222 alone” value with RAW264.7 cells (0.01–1000 nM, DMEM 2% FBS, nitrite at 545 nm) is “Only P388D1 cells were able to produce NO”. In addition, the “NO release with BacSp222 together with IFNγ” value with RAW264.7 cells (nanomolar concentrations of BacSp222 with IFNγ 10 ng/ml) is recorded as “released NO in a dose-dependent manner”. The cytotoxic effect entry in series [1] is “sigmoidal, dose-dependent cytotoxic effect”.
